The results in this text go back to US20250281647A1, “STEALTH LIPID NANOPARTICLE COMPOSITIONS FOR CELL TARGETING” (Generation Bio Co., priority 2023, published 2025).

For the assay, the target named is T1, ASGPR (Homo sapiens, UniProt P07306).
T1 sequence (P07306 1-291): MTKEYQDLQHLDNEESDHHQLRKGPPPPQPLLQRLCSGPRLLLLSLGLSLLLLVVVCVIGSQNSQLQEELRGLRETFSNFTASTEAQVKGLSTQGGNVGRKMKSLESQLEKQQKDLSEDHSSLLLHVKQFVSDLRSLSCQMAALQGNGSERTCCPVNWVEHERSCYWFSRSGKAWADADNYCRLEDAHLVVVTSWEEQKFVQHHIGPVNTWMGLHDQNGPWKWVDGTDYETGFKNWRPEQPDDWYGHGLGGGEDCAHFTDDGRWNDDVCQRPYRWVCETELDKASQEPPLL
As to the kind of experiment: Binding of targeting ligand formats to ASGPR. The note with it: read-out: dissociation constants (Kd). An excerpt: In this example, multiple targeting ligand formats with varying affinities to ASGPR and off target receptors were compared. […] The high degree of over modification refers to modifying each Fab with more than 1 SATA molecule leading to multiple points of PEG-Mal conjugation during the final phase of ctLNP formulation and conjugation.

As usually defined, the Kd is the free concentration of one partner at which half of the binding sites on the other are occupied at equilibrium, for simple one-to-one binding. In the case of `CC(=O)N[C@H]1C(O)O[C@H](CO)[C@H](O)[C@@H]1O` (stereo partly shown) [GalNAc], the dissociation constant (Kd) is about 30.7 nM.
